According to ChEMBL document CHEMBL6087449, “Identification of an Isoxazole Derivative as an Antitubercular Compound for Targeting the FadD Enzymes of Mycobacterium tuberculosis” (J Med Chem, 2025):
In brackets after ≈: the same amount, converted by molar mass. Activity calls are given as the source filed them. No cut-off for these calls is given here.

Tested on: Mycobacterium tuberculosis
Test: Antitubercular activity against Mycobacterium tuberculosis H37Rv assessed as inhibition of bacterial growth incubated for 5 days by Alamar Blue based assay
Assay type: functional, organism-based
Details: for IC50: 120 h

SMILES	Activity (time 5.0 day)	IC50 [µg/mL]
Oc1ccc(-c2onc(C(F)(F)F)c2-c2ccc(Cl)cc2)c(O)c1	inactive	
COc1ccc(-c2onc(C(F)(F)F)c2-c2ccccc2)c(O)c1		21.7 (≈ 64.7 µM)
Oc1ccccc1-c1cc(C(F)(F)F)no1		11.7 (≈ 51.1 µM)
Cc1ccc(O)c(-c2cc(C(F)(F)C(F)F)no2)c1		12.8 (≈ 46.5 µM)
